“And” between values parts separate entries of the source, which are not always exact repeats. Equal values may be shown once.
Biological target: T1, FKBP12 (Homo sapiens, UniProt P62942)
Test: Rotamase inhibition assay (N-succinyl-Ala-Ala-Pro-Phe-p-nitroanilide, chymotrypsin-coupled)
Assay type: biochemical
Conditions: Table 1; read-out: Rotamase Ki(app)
Procedure: In the rotamase inhibition assay, isomerization of an artificial substrate N-succinyl-Ala-Ala-Pro-Phe-p-nitroanilide is followed spectrophotometrically. The assay includes the cis form of the substrate, FKBP12, the compound being tested, and chymotrypsin. Chymotrypsin is able to cleave p-nitroaniline from the trans form of the substrate, but not from the cis form. Release of p-nitroaniline is measured spectrophotometrically. Using this assay, various amounts of the FKBP rotamase-inhibiting compounds of formula (I) were added to cis-N-succinyl-alanine-alanine-proline-phenylalanine-para-nitroaniline (BACHEM, 3132 Kashiwa Street, Torrance, Calif. 90505) in the presence of FKBP12 and chymotrypsin. Spectrophotometric measurements of p-nitroaniline concentrations allowed estimation of the apparent Ki values, which are provided in Table 1 below.

T1 sequence (P62942 whole entry, species assumed): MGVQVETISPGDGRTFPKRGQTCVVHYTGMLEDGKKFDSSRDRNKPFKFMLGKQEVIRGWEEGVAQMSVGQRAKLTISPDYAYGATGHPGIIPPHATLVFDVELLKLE

| Ki [nM] | SMILES |
| --- | --- |
| 382 | COc1cc(NS(=O)(=O)N2CCCC[C@H]2C(=O)OC(CCCc2ccccc2)CCCc2ccccc2)cc(OC)c1OC [Compound 22, 1-(3,4,5-Trimethoxy-phenylsulfamoyl)-piperidine-2S-carboxylic acid 4-phenyl-1-(3-phenyl-propyl)-butyl ester] |
| 6990 | CCC(C)(C)NS(=O)(=O)N1CCCC[C@H]1C(=O)OC(CCCc1ccccc1)CCCc1ccccc1 [Compound 23, 1-(1,1-Dimethyl-propylsulfamoyl)-piperidine-2S-carboxylic acid 4-phenyl-1-(3-phenyl-propyl)-butyl ester] |
| 1160 | O=C(OCCCCc1ccccc1)[C@@H]1CCCCN1S(=O)(=O)Nc1ccccc1 [Compound 24, 1-Phenylsulfamoyl-piperidine-2S-carboxylic acid 4-phenyl-butyl ester] |
| 193 | CCC(C)(C)NS(=O)(=O)N1CCCC[C@H]1C(=O)OCCCCc1ccccc1 [Compound 26, 1-(1,1-Dimethyl-propylsulfamoyl)-piperidine-2S-carboxylic acid 4-phenyl-butyl ester] |

Biological target: T1, FKBP12
Test: Affinity for FKBP-12 (Ki), succinyl-Ala-Leu-Pro-Phe-pNA chymotrypsin-coupled assay
Assay type: biochemical
Parameters: key to FKBP12 inhibition (in Kiapps column): NI: no inhibition; NSI: no significant inhibition
Conditions: @ 20
Procedure: In a quartz cuvette, a final 1 mL buffer concentration was reached (50 mM Hepes, 100 mM NaCl, pH 8.0). Within this final reaction volume, 3.5 μL […] FKBP-12 (in 50 mM Hepes, 100 mM NaCl, pH 8.0) and 10 μL test compound in DMSO were added. The reaction was initiated by adding 10 μL chymotrypsin (100 mg/mL in 1 mM HCl) followed by 5 μL (1-20 mM succinyl-Ala-Leu-Pro-Phe-pNA in 240 mM LiCl/TFE).
The absorbance at 390 nm versus time was monitored for up to 400 seconds. Rate constants were determined from the absorbance versus time plots generated.

| FKBP12 inhibition (in Kiapps column) | SMILES |
| --- | --- |
| NI @ 20 | O=C(OCCCCc1ccccc1)[C@@H]1CCCCN1S(=O)(=O)N(O)c1ccccc1 [Compound 99, (S)-1-(Hydroxy-phenyl-sulfamoyl)-piperidine-2-carboxylic acid 4-phenyl-butyl ester] |
| NSI @ 20 | O=C(O)[C@@H]1CCCN1S(=O)(=O)Nc1cccnc1 [Compound 116, (S)-1-(Pyridin-3-ylsulfamoyl)-pyrrolidine-2-carboxylic acid] |
| NSI @ 20 | O=C1[C@@H]2CCCN2S(=O)(=O)N1c1cccnc1 [Compound 117, (S)-1,1-Dioxo-2-pyridin-3-yl-hexahydro-1λ^6-thia-2,6a-diaza-pentalen-3-one] |

Same assay, conditions: Table 2; read-out: FKBP12 Kiapps

| SMILES | Ki |
| --- | --- |
| CCC(C)(C)NS(=O)(=O)N1CCCC[C@H]1C(=O)OCCCCc1ccccc1 [Compound 26, 1-(1,1-Dimethyl-propylsulfamoyl)-piperidine-2S-carboxylic acid 4-phenyl-butyl ester] | 193 nM and 218 nM |
| COC(=O)[C@@H]1CCCCN1S(=O)(=O)Nc1cc(OC)c(OC)c(OC)c1 [Compound 90, (S)-1-(3,4,5-Trimethoxy-phenylsulfamoyl)-piperidine-2-carboxylic acid Methyl ester] | 6900 nM |
| COc1cc(NS(=O)(=O)N2CCCC[C@H]2C(=O)NCCCN2CCCCC2)cc(OC)c1OC [Compound 91, (S)-1-(3,4,5-Trimethoxy-phenylsulfamoyl)-piperidine-2-carboxylic acid (3-piperidin-1-yl-propyl)-amide] | 1300 nM |
| COc1cc(NS(=O)(=O)N2CCCC[C@H]2C(=O)NCCCc2cccnc2)cc(OC)c1OC [Compound 93, (S)-1-(3,4,5-Trimethoxy-phenylsulfamoyl)-piperidine-2-carboxylic acid (3-pyridin-3-yl-propyl)-amide] | 200 nM |
| O=C(OCCCCc1ccccc1)[C@@H]1CCCCN1S(=O)(=O)Nc1ccc(N2CCOCC2)nc1 [Compound 94, (S)-1-(6-Morpholin-4-yl-pyridin-3-ylsulfamoyl)-piperidine-2-carboxylic acid 4-phenyl-butyl ester] | 208 nM |
| O=C(OCCCCc1ccccc1)[C@@H]1CCCCN1S(=O)(=O)Nc1cc(F)c(F)c(F)c1 [Compound 95, (S)-1-(3,4,5-Trifluoro-phenylsulfamoyl)-piperidine-2-carboxylic acid 4-phenyl-butyl ester] | 435 nM |
| O=C(OCCCCc1ccccc1)[C@@H]1CCCCN1S(=O)(=O)Nc1ccc(C(F)(F)F)nc1 [Compound 96, (S)-1-(6-Trifluoromethyl-pyridin-3-ylsulfamoyl)-piperidine-2-carboxylic acid 4-phenyl-butyl ester] | 440 nM |
| O=C(OCCCCc1ccccc1)[C@@H]1CCCCN1S(=O)(=O)Nc1cccnc1 [Compound 97, (S)-1-(Pyridin-3-ylsulfamoyl)-piperidine-2-carboxylic acid 4-phenylbutyl ester] | 73 nM |
| COc1cccc(NS(=O)(=O)N2CCCC[C@H]2C(=O)OCCCCc2ccccc2)c1 [Compound 98] | 218 nM |
| COc1cc(NS(=O)(=O)N2CCCC[C@H]2C(=O)N[C@H](COCc2cccnc2)C(C)C)cc(OC)c1OC [Compound 112, (S)-1-(3,4,5-Trimethoxy-phenylsulfamoyl)-piperidine-2-carboxylic acid [(S)-2-methyl-1-(pyridin-3-ylmethoxymethyl)-propyl]-amide] | 41 nM |
| CCC(C)(C)NS(=O)(=O)N1CCC[C@H]1COC(=O)N(CCc1ccccc1)Cc1ccccc1 [Compound 113, Benzyl-phenethyl-carbamic acid (S)-1-(dimethyl-propylsulfamoyl)-pyrrolidin-2-ylmethyl ester] | 33000 nM |
| CCC(C)(C)NS(=O)(=O)N1CCC[C@H]1C(=O)NCCCc1cccnc1 [Compound 114, (S)-1-(1,1-Dimethyl-propylsulfamoyl)-pyrrolidine-2-carboxylic acid (3-pyridin-3-yl-propyl)-amide] | 1110 nM |
| O=C(OCc1ccccc1)[C@@H]1CCCN1S(=O)(=O)Nc1cccnc1 [Compound 115, (S)-1-(Pyridin-3-ylsulfamoyl)-pyrrolidine-2-carboxylic acid benzyl ester] | 20400 nM |
| O=C(NCCCc1ccccc1)[C@@H]1CCCN1S(=O)(=O)Nc1cccnc1 [Compound 118, (S)-1-(Pyridin-3-ylsulfamoyl)-pyrrolidine-2-carboxylic acid (3-phenyl-propyl)-amide] | 16900 nM |
| COc1cc(NS(=O)(=O)N2CCCC[C@H]2C(=O)CCCCCc2ccccc2)cc(OC)c1OC [Compound 119, (S)-2-(6-Phenyl-hexanoyl)-piperidine-1-sulfonic acid (3,4,5-trimethoxy-phenyl)-amide] | 1300 nM |

Next, values leading:

| Ki | SMILES |
| --- | --- |
| 1160 nM and 508 nM | O=C(OCCCCc1ccccc1)[C@@H]1CCCCN1S(=O)(=O)Nc1ccccc1 [Compound 24, 1-Phenylsulfamoyl-piperidine-2S-carboxylic acid 4-phenyl-butyl ester] |
| 171 nM | COc1cc(NS(=O)(=O)N2CCCC[C@H]2C(=O)OC(COCc2ccccc2)COCc2ccccc2)cc(OC)c1OC [Compound 102, (S)-1-(3,4,5-Trimethoxy-phenylsulfamoyl)-piperidine-2-carboxylic acid 2-benzyloxy-1-benzyloxymethyl-ethyl ester] |
| 39 nM | COc1ccc(NS(=O)(=O)N2CCCC[C@H]2C(=O)OC(COCc2ccccc2)COCc2ccccc2)cn1 [Compound 103, (S)-1-(6-Methoxy-pyridin-3-ylsulfamoyl)-piperidine-2-carboxylic acid 2-benzyloxy-1-benzyloxymethyl-ethyl ester] |
| 7100 nM | COc1cc(NS(=O)(=O)N2CCCC[C@H]2C(=O)OC(COCc2ccccc2)COCc2ccccc2)c(OC)cc1Cl [Compound 104, (S)-1-(4-Chloro-2,5-dimethoxy-phenylsulfamoyl)-piperidine-2-carboxylic acid 2-benzyloxy-1-benzyloxymethyl-ethyl ester] |
| 33 nM | O=C(OC(COCc1ccccc1)COCc1ccccc1)[C@@H]1CCCCN1S(=O)(=O)Nc1cccnc1 [Compound 105, (S)-1-(Pyridin-3-ylsulfamoyl)-piperidine-2-carboxylic acid 2-benzyloxy-1-benzyloxymethyl-ethyl ester] |
| 115 nM | O=C(OC(COCc1ccccc1)COCc1ccccc1)[C@@H]1CCCCN1S(=O)(=O)Nc1ccc(N2CCOCC2)nc1 [Compound 106, (S)-1-(6-Morpholin-4-yl-pyridin-3-ylsulfamoyl)-piperidine-2-carboxylic acid 2-benzyloxy-1-benzyloxymethyl-ethyl ester] |
| 88 nM | Cc1ccc(NS(=O)(=O)N2CCCC[C@H]2C(=O)OC(COCc2ccccc2)COCc2ccccc2)cn1 [Compound 107, (S)-1-(6-Methyl-pyridin-3-ylsulfamoyl)-piperidine-2-carboxylic acid 2-benzyloxy-1-benzyloxymethyl-ethyl ester] |
| 127 nM | O=C(OC(COCc1ccccc1)COCc1ccccc1)[C@@H]1CCCCN1S(=O)(=O)Nc1cnc(N2CCOCC2)c(C(F)(F)F)c1 [Compound 108, (S)-1-(Morpholin-4-yl-trifluoromethyl-pyridin-3-ylsulfamoyl)-piperidine-2-carboxylic acid 2-benzyloxy-1-benzyloxymethyl-ethyl ester] |

— US6544987B2, “Compounds, compositions, and methods for stimulating neuronal growth and elongation” (Pfizer Inc., priority 1999, dated 2003)
